Marks after values point to notes of the source that are not given here.
How the values were obtained:
[1] = tested on: normal human adipose-derived mesenchymal stem cells (MSC); assay: Reprograming of aged mesenchymal stem cells, gene expression by qPCR; format: cell-based; conditions: 10 ug/ml, 72 hours, starved MSC
From the text: MSCs are a multipotent type of stem cell that, directly or indirectly, have a significant impact on a number of physiological processes, including the proliferation and differentiation of epidermal cells and regeneration of the epidermal layer; however, as they age they show lower stemness and regenerative potential. MSCs are shown to enhance wound healing, to restore the barrier function of the skin, and to address skin aging, particularly aging due to sun exposure as well as natural senescence, including reducing the manifestation and/or degree of wrinkles. An evaluation was conducted to ascertain the effect, if any, of zinc di-(di-n-butyryl lysinate) (“ZDBL”) on MSCs. Specifically, normal human adipose-derived mesenchymal stem cells (MSC) (ATCC, Manassas, VA—PCS-500-011) were seeded in mesenchymal stem cell basal medium (ATCC, Manassas, VA—PCS500-030) supplemented with the MSC growth kit starvation media (ATCC, Manassas, VA—PCS500-040-811S) and cultured at 37° C. in a humidified 5% CO2 atmosphere using an VWR tissue culture incubator, Approximately 24 hours after a portion of the cells was placed in the starvation medium to generate stress, they were exposed to the ZDBL (10 ug/ml) and incubated for 72 hours: the remaining portion was not exposed to the ZDBL. RNA was then extracted for gene expression quantification by qPCR.

[2] = tested on: Telomerase; assay: Telomerase Activity Quantification qPCR Assay in human dermal fibroblasts; format: cell-based; conditions: three days
Procedure: Normal neonatal human dermal fibroblasts (HDF cat, #2310; ScienCell, Oceanside, CA) were grown to confluence in the 6 well plate format and incubated with the test substances identified in Table 3 for three days. Following incubation, the cells were lysed and telomerase activity was determined with Telomerase Activity Quantification qPCR Assay Kit from ScienCell (cat. #8928). Forget-Me-Not™ EvaGreen® qPCR Master Mix (Low ROX) (Biotium, Fremont, CA) was used for real-time quantitative PCR on C1000 Touch System with CFX384™ optical module Detection. For quantifying the level of activity, the Comparative Cq method was used, following the equation: […]
where TPS is telomere primer set, which recognizes and amplifies newly synthesized telomere sequences and Cq(TPS) is the Quantification Cycle Value obtained from the qPCR software. The relative telomerase activity difference between the experimental condition and control is expressed as 2^−ΔCq Telomerase activity was considered different if the level of expression was reasonably high (Cq≤33 cycles to detect), the difference vs. control was >2 fold and the p value, assessed with two-tailed Student test, was <0.05.

[3] = target: HDAC2 (Homo sapiens, UniProt Q92769); conditions: reported, abcam; cited from earlier work
[4] = target: HDAC1 (Homo sapiens, UniProt Q13547); conditions: reported, abcam; cited from earlier work
[5] = target: T1, HDAC10 (Homo sapiens, UniProt Q969S8); conditions: reported, abcam; cited from earlier work
T1 sequence (Q969S8 1-669): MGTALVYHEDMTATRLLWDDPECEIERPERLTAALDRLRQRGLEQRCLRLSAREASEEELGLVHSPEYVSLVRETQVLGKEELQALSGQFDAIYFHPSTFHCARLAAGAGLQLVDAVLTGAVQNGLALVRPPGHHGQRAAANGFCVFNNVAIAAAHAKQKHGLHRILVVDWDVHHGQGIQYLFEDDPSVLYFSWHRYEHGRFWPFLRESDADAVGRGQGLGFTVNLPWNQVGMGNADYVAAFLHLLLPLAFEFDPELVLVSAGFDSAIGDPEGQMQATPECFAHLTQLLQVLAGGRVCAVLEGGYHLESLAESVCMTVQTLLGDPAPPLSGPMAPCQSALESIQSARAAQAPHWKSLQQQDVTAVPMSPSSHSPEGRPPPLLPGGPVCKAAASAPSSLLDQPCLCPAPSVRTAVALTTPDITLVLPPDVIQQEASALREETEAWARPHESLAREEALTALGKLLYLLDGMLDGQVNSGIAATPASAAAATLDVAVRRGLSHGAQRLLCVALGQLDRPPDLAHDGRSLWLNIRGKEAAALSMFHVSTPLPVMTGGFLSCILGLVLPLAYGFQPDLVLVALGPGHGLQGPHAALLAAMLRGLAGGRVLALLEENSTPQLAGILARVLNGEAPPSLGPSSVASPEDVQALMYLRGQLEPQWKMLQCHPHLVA

Chain of HDAC2 (Q92769 whole entry): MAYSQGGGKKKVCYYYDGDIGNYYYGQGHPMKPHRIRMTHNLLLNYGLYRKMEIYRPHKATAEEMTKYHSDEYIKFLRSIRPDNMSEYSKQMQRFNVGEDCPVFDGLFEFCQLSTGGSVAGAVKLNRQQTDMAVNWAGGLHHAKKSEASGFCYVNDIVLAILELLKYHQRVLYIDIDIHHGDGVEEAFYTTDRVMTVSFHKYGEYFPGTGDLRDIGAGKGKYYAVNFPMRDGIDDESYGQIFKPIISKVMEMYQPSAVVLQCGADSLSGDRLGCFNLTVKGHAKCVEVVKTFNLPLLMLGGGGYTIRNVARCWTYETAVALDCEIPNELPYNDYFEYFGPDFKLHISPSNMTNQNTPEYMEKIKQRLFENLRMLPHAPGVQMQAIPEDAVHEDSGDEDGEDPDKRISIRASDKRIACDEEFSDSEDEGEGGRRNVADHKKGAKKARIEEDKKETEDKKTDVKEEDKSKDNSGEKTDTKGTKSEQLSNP
Chain of HDAC1 (Q13547 whole entry, species assumed): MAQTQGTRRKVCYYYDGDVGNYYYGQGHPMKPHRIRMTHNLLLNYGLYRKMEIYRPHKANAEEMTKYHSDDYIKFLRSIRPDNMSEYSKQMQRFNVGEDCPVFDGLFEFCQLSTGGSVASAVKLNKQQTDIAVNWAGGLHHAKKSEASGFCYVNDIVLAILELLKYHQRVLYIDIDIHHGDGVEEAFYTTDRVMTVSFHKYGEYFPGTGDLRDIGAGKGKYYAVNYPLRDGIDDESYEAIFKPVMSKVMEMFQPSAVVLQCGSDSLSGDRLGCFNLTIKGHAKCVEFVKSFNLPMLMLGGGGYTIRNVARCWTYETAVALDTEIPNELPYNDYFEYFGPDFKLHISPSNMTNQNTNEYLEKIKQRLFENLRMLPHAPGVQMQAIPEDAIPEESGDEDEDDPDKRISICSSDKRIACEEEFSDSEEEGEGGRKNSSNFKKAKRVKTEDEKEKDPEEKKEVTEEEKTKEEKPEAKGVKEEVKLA

For `CCCC(=O)NCCCC[C@H](NC(=O)CCC)C(=O)[O-].CCCC(=O)NCCCC[C@H](NC(=O)CCC)C(=O)[O-].[Zn+2]` [Zn di-(di-n-butyryl lysinate), Zinc di-(di-n-butyryl lysinate)], the “BMP7 gene expression, Fold Change versus control” value [1] was 1.8* fold, the “DACT1 gene expression, Fold Change versus control” value [1] was 2.2** fold and the “DLK1 gene expression, Fold Change versus control” value [1] was 2.4** fold. The “DPP4 gene expression, Fold Change versus control” value [1] was −1.8** fold, the “OCT4 gene expression, Fold Change versus control” value [1] was 1.7** fold and the “SOX2 gene expression, Fold Change versus control” value [1] was 2.4* fold. For the same compound, the “SQSTM1/p62 gene expression, Fold Change versus control” value [1] was 1.7* fold, the “TP63 gene expression, Fold Change versus control” value [1] was 3.0** fold and the “WNT2 gene expression, Fold Change versus control” value [1] was 1.9** fold. For the same compound, the “Average Cq(TPS)” value ([2]; 10 μg/ml) was 30.7, the “Telomerase Activity (FC vs. water)” value ([2]; 10 μg/ml) was 8.9 FC and the ΔCq sample-water ([2]; 10 μg/ml) was 3.2. The “Average Cq(TPS)” value ([2]; 50 μg/ml) was 30.0, the “Telomerase Activity (FC vs. water)” value ([2]; 50 μg/ml) was 14.6 FC and the ΔCq sample-water ([2]; 50 μg/ml) was 3.9.

For `CCCC(=O)[O-].[Na+]` [Sodium butyrate, reference compound], the IC50 [3] is given as 400 µM, the IC50 [4] is given as 300 µM and the “Average Cq(TPS)” value ([2]; 50 μg/ml) is given as 34.3. The “Telomerase Activity (FC vs. water)” value ([2]; 50 μg/ml) was 0.7 FC, the ΔCq sample-water ([2]; 50 μg/ml) was −0.5 and the “Average Cq(TPS)” value ([2]; 100 μg/ml) was 33.7. The “Telomerase Activity (FC vs. water)” value ([2]; 100 μg/ml) was 1.1 FC, the ΔCq sample-water ([2]; 100 μg/ml) was 0.1 and the “inhibition of HDAC10” value [5] was “no inhibition”.

From US20260041620A1, “NOVEL AMINO ACID BASED SALTS, COMPOSITIONS AND METHODS FOR TREATING SKIN AND IMPROVING SKIN REJUVENATION AND LONGEVITY” (Sytheon Ltd, priority 2023, published 2026)
